Like-named read-outs stand apart in the source and are kept apart here.
Assays:
[1] = Solubility of DMSO stock for 100X/50X Cmax testing; format: physicochemical; settings: precipitation of DMSO stock
Source text: (§1) Supplement 204_2016_1918_MOESM3_ESM.xlsx, sheet "Sheet1" | column: 100 Cmax; 50 Cmax; note

RCC V = RCC V activity in submitochondrial particles; format: biochemical, rat; as to RCC V at 5XCmax: key: 0 indicates that the drug had no effects (negative)
Procedure, shortened: (§2)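 Absorbance kinetics: A340 (RCC I, V) and A600 (RCC II) read each minute over 6 min, A550 (RCC III, IV) every 10 s over 2 min; RCC I taken as […]. Particles (1 mg/ml) pretreated 15 min with compound; DMSO-treated activity = 1.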

[2] = ref product labeling, cited from earlier work
RCC I = RCC I activity in submitochondrial particles; format: biochemical, rat; parameters: key to RCC I at 10XCmax / RCC I at 100XCmax / RCC I at 50XCmax / RCC I at 30XCmax / RCC I at 20XCmax: activity relative to DMSO-treated controls (control set as 1 = 100%)
Procedure, shortened: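 Kinase inhibitors were preincubated 15 min with submitochondrial particles (1 mg/ml) before complex activities were measured. RCC I was the rotenone-sensitive portion (activity without minus with rotenone). RCC I/V was read at 340 nm and RCC II at 600 nm every 1 min for 6 min. RCC III and IV were read at 550 nm every 10 s for 2 min. Activities are normalized to DMSO controls set as 1.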

RCC II = target: T1, RCC II (Rattus norvegicus, UniProt P21913+Q641Z9+Q6PCT8+Q920L2); assay: RCC II activity in submitochondrial particles; format: biochemical; parameters: key: activity relative to DMSO-treated controls (control set as 1 = 100%)
T1 construct: Submitochondrial particles were prepared by subjecting the intact mitochondria to three successive freeze–thaw cycles; from tissue; host or cells: rat liver mitochondria, used as submitochondrial particles
T1 sequence (Q920L2 35-656): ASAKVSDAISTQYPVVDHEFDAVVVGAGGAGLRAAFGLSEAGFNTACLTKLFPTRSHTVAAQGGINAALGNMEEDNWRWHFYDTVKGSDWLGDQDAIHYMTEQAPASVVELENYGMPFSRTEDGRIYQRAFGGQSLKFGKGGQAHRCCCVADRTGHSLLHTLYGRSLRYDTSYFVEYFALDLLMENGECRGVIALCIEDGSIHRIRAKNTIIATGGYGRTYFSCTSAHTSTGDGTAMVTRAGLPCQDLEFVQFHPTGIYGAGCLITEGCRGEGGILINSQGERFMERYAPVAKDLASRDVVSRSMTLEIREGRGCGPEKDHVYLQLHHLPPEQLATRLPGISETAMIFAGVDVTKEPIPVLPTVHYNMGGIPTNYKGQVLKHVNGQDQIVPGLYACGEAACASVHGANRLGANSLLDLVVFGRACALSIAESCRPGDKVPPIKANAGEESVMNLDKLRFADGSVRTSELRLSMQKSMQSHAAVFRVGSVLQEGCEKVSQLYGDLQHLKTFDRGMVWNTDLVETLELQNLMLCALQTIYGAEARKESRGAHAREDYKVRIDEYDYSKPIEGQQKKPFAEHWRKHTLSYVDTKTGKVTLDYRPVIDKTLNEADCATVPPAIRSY
T1 sequence (P21913 31-282): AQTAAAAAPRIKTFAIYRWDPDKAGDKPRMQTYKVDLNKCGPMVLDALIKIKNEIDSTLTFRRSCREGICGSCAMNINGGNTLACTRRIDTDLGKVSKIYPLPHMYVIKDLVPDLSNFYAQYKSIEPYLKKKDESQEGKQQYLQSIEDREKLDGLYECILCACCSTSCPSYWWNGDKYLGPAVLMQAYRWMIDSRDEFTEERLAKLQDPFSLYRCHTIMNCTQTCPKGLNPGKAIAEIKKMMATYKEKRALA
T1 sequence (Q641Z9 1-169): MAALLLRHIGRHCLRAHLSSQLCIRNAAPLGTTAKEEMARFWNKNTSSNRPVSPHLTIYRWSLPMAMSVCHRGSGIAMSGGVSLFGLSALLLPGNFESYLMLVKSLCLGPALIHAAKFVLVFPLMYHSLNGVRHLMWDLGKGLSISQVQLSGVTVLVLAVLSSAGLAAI
T1 sequence (Q6PCT8 57-159): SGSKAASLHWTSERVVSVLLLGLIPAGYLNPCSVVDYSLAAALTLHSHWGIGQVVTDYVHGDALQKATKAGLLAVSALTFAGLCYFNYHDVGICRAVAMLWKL
Procedure, shortened: as §2

RCC I–V = assay: Activities of RCC I–V, overall statements; format: biochemical, rat; settings: submitochondrial particles; for RCCs inhibited: up to 100-fold Cmax or highest testable concentration
Procedure, shortened: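 First, submitochondrial particles (1 mg/ml) are incubated with inhibitor for 15 min. Next, complex activities are followed spectrophotometrically, with RCC I taken as the difference between buffers lacking and containing rotenone. Finally, activities are expressed relative to DMSO controls set at 1.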

[3] = Solubility of drug in DMSO stock / reaction buffer at multiples of Cmax; format: physicochemical
Source text: as §1

[4] = system: isolated rat liver mitochondria; assay: Mitochondrial toxicity, any endpoint, intact mitochondria and submitochondrial particles; format: biochemical; settings: for lowest concentration causing significant mitochondrial toxicity: any endpoint; for mitochondrial injury: concentrations equal to 100-fold Cmax
Procedure, shortened: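 Rat liver mitochondria isolated by differential centrifugation in sucrose/Tris-MOPS/EGTA buffer pH 7.4, adjusted to 1 mg/ml protein before treatment. Kinase inhibitors added at 1:1000 dilution of stock; final DMSO 0.1%, with 0.1% DMSO controls.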

[5] = parameters: method as in product labeling; settings: ref product labeling, cited from earlier work
[6] = relative to DMSO treated samples
[7] = 10-fold Cmax, 15 min, DMSO-treated = 100
[8] = BBW: black box warning, W&P: Warnings and Precautions

Structure (SMILES)	note (DMSO stock) [1]	RCC V at 5XCmax (RCC V; DMSO treated samples set as 1)	RCC V at 50XCmax (RCC V; DMSO treated samples set as 1)	Potential for cardiotoxicity (based on labeling) [2]	RCC I at 10XCmax (RCC I; DMSO treated samples set as 1)	RCC II at 1.0XCmax (RCC II; DMSO treated samples set as 1)	RCC II at 2.5XCmax (RCC II; DMSO treated samples set as 1)	RCC II at 5XCmax (RCC II; DMSO treated samples set as 1)	RCC II at 10XCmax (RCC II; DMSO treated samples set as 1)	RCC II at 20XCmax (RCC II; DMSO treated samples set as 1)	RCC II at 30XCmax (RCC II; DMSO treated samples set as 1)	RCC II at 50XCmax (RCC II; DMSO treated samples set as 1)	RCC II at 100XCmax (RCC II; DMSO treated samples set as 1)	RCCs inhibited (RCC I–V)	lowest concentration causing significant mitochondrial toxicity [4]	mitochondrial injury [4]	other results
CC(=O)c1c(C)c2cnc(Nc3ccc(N4CCNCC4)cn3)nc2n(C2CCCC2)c1=O.Cl [palbociclib hydrochloride]	100X will precipitate	0	0	0	0	0	0	0	0	0	0	0	0				
CNC(=O)c1cc(Oc2ccc(NC(=O)Nc3ccc(Cl)c(C(F)(F)F)c3)c(F)c2)ccn1 [Regorafenib]														RCC II	equal to the Cmax	mitochondrial injury was induced	RCC V at 5XCmax (RCC V; [6]): 0; RCC activity V (RCC V; [7]): 90.36 ± 13.39 % of control; lowest concentration inhibiting RCCs (RCC I–V): 10 fold Cmax; note (solubility) [3]: 808 mM will precipitate; RCC activity I (RCC I; [7]): 99.37 ± 3.35 % of control; RCC I at 10XCmax (RCC I; [6]): 0; RCC II at 1.0XCmax (RCC II; [6]): 0; RCC II at 2.5XCmax (RCC II; [6]): 0; RCC II at 5XCmax (RCC II; [6]): 0; RCC II at 10XCmax (RCC II; [6]): 83.50±2.91; Labeling for cardiotoxicity [5, 8]: W&P: Cardiac Ischemia and Infarction; Potential for cardiotoxicity (based on labeling) [5]: 1
CC(C)(C)c1nc(-c2cccc(NS(=O)(=O)c3c(F)cccc3F)c2F)c(-c2ccnc(N)n2)s1 [Dabrafenib]		0	0	1	0	0	0	0	0	0	0	0	0	no effects on RCC activities	5 fold Cmax		Labeling for cardiotoxicity [2, 8]: W&P: Cardiomyopathy
CC[C@H](Nc1ncnc2[nH]cnc12)c1nc2cccc(F)c2c(=O)n1-c1ccccc1 [Idelalisib]	464 mM will precipitate	0	0	0	0	0	0	0	0	0	0	0	0			mitochondrial injury was induced	

Reference: publication PMC5515969, “Effects of 31 FDA approved small-molecule kinase inhibitors on isolated rat liver mitochondria” (Archives of Toxicology, 2016)
